The subject of data set [1] is MS751 cells. Briefly: MTT cell proliferation assay, MS751 cells. The class given is cell-based, human. The conditions noted are these: approximately 64-72 hours incubation. The method, then: (§1) The MTT cell proliferation assay was used to study the cytotoxic properties of the compounds. The assay was performed according to the method described by Roche Molecular Biochemicals, with minor modifications. The assay is based on the cleavage of the tetrazolium salt, MTT, in the presence of an electron-coupling reagent. The water-insoluble formazan salt produced must be solubilized in an additional step. Cells grown in a 96-well tissue culture plate were incubated with the MTT solution for approximately 4 hours. After this incubation period, a water-insoluble formazan dye formed. After solubilization, the formazan dye was quantitated using a scanning multi-well spectrophotometer (ELISA reader). […] The cells were seeded at 5,000-10,000 cells in each well of 96-well plate in 100 μL of fresh culture medium and were allowed to attach overnight. The stock solutions of the compounds were diluted in 100 μL cell culture medium to obtain eight concentrations of each test compound, ranging from 1 nM to 30 μM. […] All optical densities were measured at 490 nm using a Vmax Kinetic Microplate Reader (Molecular Devices). In most cases, the assay was performed in duplicate and the results were presented as a mean percent inhibition to the negative control±SE. The following formula was used to calculate the percent of inhibition: Inhibition (%)=(1-(ODo/OD))×100.
(§2) The compounds were tested against MS751, Z138 and 3T3 cells. The MS751 cell line is derived from a metastasis to lymph node of human cervix from a patient diagnosed with squameous cell carcinoma of the cervix. The Z138 cell line is a mature B-cell acute lymphoblastic leukemia cell line derived from a patient with chronic lymphocytic leukemia. 3T3 cells are standard fibroblast cells; they were originally isolated from Swiss mouse embryo tissue.
Background: Tetrazolium assays rely on reduction of a dye to a coloured formazan, in cell work by metabolically active cells.

In data set [2] the test system is Z138 cells. Briefly: MTT cell proliferation assay, Z138 cells. The note with it: approximately 64-72 hours incubation. It is filed as cell-based, human. Here is the method:
as §1, §2

Data set [3] deals with 3T3 cells. The data set can be described thus: MTT cell proliferation assay, 3T3 cells. The class given is cell-based, mouse. The method, then: as §1, §2
Data set [4] relates to Molt-4 T-ALL cancer xenograft; NCI-H520 lung cancer xenograft. The data set can be described thus: Xenograft models in mice (Molt-4 T-ALL in SCID mice; NCI-H520 lung cancer in nu/nu mice). It is filed as in vivo, mouse. The conditions noted are these: Molt-4 xenograft 10 and 20 mg/kg PO BID; H520 xenograft 100 mg/kg PO BID. The method, then: In this study, the impact of the compound of Example 2 on tumor growth was tested using the Molt-4 T-ALL cancer xenograft model in SCID mice. MOLT 4 (CRL-1582) acute lymphoblastic leukemia cells were obtained from ATCC. These cells were grown in RPMI-1640 medium supplemented with 10% fetal bovine serum, 1% penicillin and streptomycin. Cells were sub-cultured by transferring floating cells to a new flask and trypsinizing adherent cells before subculturing at a ratio of 1:4. Molt-4 cells were harvested by centrifugation and counted using a hemocytometer. Cells were resuspended in PBS at a 5×10^7 cells per mL. Cells were placed on ice and mixed with an equal volume of Matrigel (BD Biosciences CB-40234). This mixture was kept on ice and injected into the left flank of mice in a volume of […], equivalent to 5×10^6 cells per mouse. Twenty-four (24) CB-17 SCID mice were inoculated subcutaneously in the left flank Molt-4 cells. Treatment was initiated when the tumors reached a mean volume of ˜135 mm^3. […] Animal weights and conditions were recorded daily, and tumors were measured on Mondays, Wednesdays and Fridays.
In this study, the impact of the compound of Example 2 on tumor growth was tested using the NCI-H520 lung cancer xenograft model in nu/nu mice. […] Animal weights and conditions were recorded daily, and tumors were measured on Mondays, Wednesdays and Fridays.

A short description of data set [5]: Plasma protein binding. It is filed as in vitro ADME. The note with it: human plasma.
[6] abbreviates: Homo sapiens, MS751, MS751 cells.
Setting [7] is: Homo sapiens, Z-138, Z138 cells.
[8] abbreviates: Mus musculus, NIH3T3, approximately 64-72 hours incubation.
Where [9] appears, read: approximately 64-72 hours incubation.

One may read the IC50 as the concentration needed to halve the response being measured. Read a low IC50 as inhibition by little substance.

A value given as a limit tells only on which side of the number the result lay.

`CC1(F)CCN(C(=O)c2ccc(-c3cc(-c4ccc(F)cc4)c4oc(CNC(=O)/C=C/c5ccc(N)nc5)cc4c3)cc2)C1` (racemic) [Example 1, (±)-(E)-3-(6-aminopyridin-3-yl)-N-((5-(4-(3-fluoro-3-methylpyrrolidine-1-carbonyl)phenyl)-7-(4-fluorophenyl)benzofuran-2-yl)methyl)acrylamide]: the IC50 is 0.03 µM in data set [1] (setting [6]), under 0.005 µM in data set [2] (setting [7]) and 1.26 µM in data set [3] (setting [8]).
Consider `CC1(F)CCN(C(=O)c2ccc(-c3cc(C(F)(F)F)c4oc(CNC(=O)/C=C/c5ccc(N)nc5)cc4c3)cc2)C1` (single isomer, unassigned) [Example X-2, (E)-3-(6-aminopyridin-3-yl)-N-((5-(4-(3-fluoro-3-methylpyrrolidine-1-carbonyl)phenyl)-7-(trifluoromethyl)benzofuran-2-yl)methyl)acrylamide], for which the half-inhibitory concentration (IC50) in data set [1] (MS751 cells) was 0.52 µM; in data set [2] (Z138 cells), 0.24 µM; in data set [3] (setting [9]), over 10 µM.
As to `CC1(F)CCN(C(=O)c2ccc(-c3cc(C(F)(F)F)c4oc(CNC(=O)/C=C/c5ccc(N)nc5)cc4c3)cc2)C1` (single isomer, unassigned) [Example X-3, (E)-3-(6-aminopyridin-3-yl)-N-((5-(4-(3-fluoro-3-methylpyrrolidine-1-carbonyl)phenyl)-7-(trifluoromethyl)benzofuran-2-yl)methyl)acrylamide], the IC50 is 0.4 µM in data set [1] (MS751 cells), 0.4 µM in data set [2] (Z138 cells) and over 10 µM in data set [3] (setting [8]).
On to `CC1(F)CCN(C(=O)c2ccc(-c3cc(C(F)(F)F)c4oc(CNC(=O)/C=C/c5ccc(N)nc5)cc4c3)cc2)C1` (single isomer, unassigned) [Example X-4, (E)-3-(6-aminopyridin-3-yl)-N-((5-(4-(3-fluoro-3-methylpyrrolidine-1-carbonyl)phenyl)-7-(trifluoromethyl)benzofuran-2-yl)methyl)acrylamide], for which the figures for the half-maximal inhibitory concentration (IC50) in data set [1] (MS751 cells), in data set [2] (Z138 cells) and in data set [3] (setting [9]) were 2.1 µM, 1.5 µM and over 10 µM, respectively.
As for `C[C@]1(F)CCN(C(=O)c2ccc(-c3cc(-c4ccc(F)cc4)c4oc(CNC(=O)/C=C/c5ccc(N)nc5)cc4c3)cc2)C1` [Example 2, (S,E)-3-(6-aminopyridin-3-yl)-N-((5-(4-(3-fluoro-3-methylpyrrolidine-1-carbonyl)phenyl)-7-(4-fluorophenyl)benzofuran-2-yl)methyl)acrylamide], the IC50 in data set [1] (setting [6]) was 0.008 µM; in data set [2] (setting [7]), under 0.005 µM; in data set [3] (setting [8]), 1.18 µM. Further, in data set [4], the “efficacy in vivo (tumor growth)” value is “demonstrated efficacy in vivo”. Also, the “Fraction of Bound” value in data set [5] amounted to 95.2%.
Consider `C[C@@]1(F)CCN(C(=O)c2ccc(-c3cc(-c4ccc(F)cc4)c4oc(CNC(=O)/C=C/c5ccc(N)nc5)cc4c3)cc2)C1` [Example 3, (R,E)-3-(6-aminopyridin-3-yl)-N-((5-(4-(3-fluoro-3-methylpyrrolidine-1-carbonyl)phenyl)-7-(4-fluorophenyl)benzofuran-2-yl)methyl)acrylamide], for which the IC50 is 0.09 µM in data set [1] (setting [6]), 0.02 µM in data set [2] (setting [7]) and over 10 µM in data set [3] (setting [8]).
Turning to `Nc1ccc(/C=C/C(=O)NCc2cc3cc(-c4ccc(C(=O)N5CCC(F)(F)CC5)cc4)cc(-c4ccc(F)cc4)c3o2)cn1` [Example X-1, (E)-3-(6-aminopyridin-3-yl)-N-((5-(4-(4,4-difluoropiperidine-1-carbonyl)phenyl)-7-(4-fluorophenyl)benzofuran-2-yl)methyl)acrylamide], the IC50 in data set [1] (setting [6]) was 0.05 µM; in data set [2] (setting [7]) it was 0.018 µM; in data set [3] (setting [8]), 3.6 µM. In data set [5], the “Fraction of Bound” value is listed as 100%.

(Values after US10363247B2, “(S,E)-3-(6-aminopyridin-3-yl)-N-((5-(4-(3-fluoro-3-methylpyrrolidine-1-carbonyl)phenyl-7-(4-fluorophenyl)benzofuran-2-yl)methyl)acrylamide for the treatment of cancer” (Karyopharm Therapeutics Inc., priority 2015, dated 2019).)
